Test results: US10072005B2, “4-azaindole derivatives” (EISAI R&D MANAGEMENT CO., LTD., priority 2013, dated 2018)

Target: mAChR M1 (Homo sapiens, UniProt P11229)
Test: In vitro cellular calcium flux assay, positive allosteric modulation of mAChR M1
Format: cell-based
Conditions: BHK cells expressing mAChR M1; EC20 carbachol; Examples 76-80 and 82-89 slightly modified procedure
Procedure: Baby hamster kidney cells stably expressing human or rat mAChR M1 to M5 were utilised for primary and selectivity profiling activities. mAChR M2 and M4 cell lines also stably expressed the chimeric Gαqi5 G-protein.
Human mAChR M1, M3, M5 and rat M1 cells were grown in low glucose Dulbecco's Modified Eagle's Medium (DMEM) medium plus heat inactivated 10% fetal bovine serum (HI FBS) and 500 μg/ml hygromycin B^1. Human mAChR M2 and M4 cells were maintained as above with^2 the addition of 500 μg/ml G418 to the media. Cells were maintained in culture at 37° C./5% CO2 and passaged twice weekly by treatment with 0.05% Trypsin/EDTA detachment solution, centrifugation (200 g, 5 min) and re-suspension in fresh media. Following cell expansion, cells were cryopreserved at −80° C. by treatment with 0.05% Trypsin/EDTA detachment solution, centrifugation (200 g, 5 min) and re-suspension of the pellet in freezing media (90% HI FBS/10% DMSO^3) at 15E6 cells/ml^4.
Prior to assaying, cells were prepared by thawing at 37° C. in a water bath, centrifugation (200 g, 5 min) and re-suspension of the pellet in fresh media. 15000 cells per well were seeded in black, clear bottomed 384-well Greiner Bio-One plates in plating medium (DMEM/10% HI FBS) and incubated overnight at 37 C/5% CO2.
On the day of the assay, media was removed from each well and replaced with 50 μl^5 assay buffer (HBSS with 20 mM HEPES and 2.5 mM Probenecid) containing the calcium indicator, Calcium 4 (Molecular Devices). Cells were then incubated at 37° C./5% CO2 for 30 min and at room temperature.
Compound preparation was carried out by generation of 11-point, 1 in 3 serial dilution concentration response curves in 100% DMSO. Compound was then diluted 1 in 65^6 with assay buffer (HBSS with 20 mM HEPES and 2.5 mM Probenecid) prior to the addition of 10 ul^7 to the cells using a Tetra fluorometric imaging plate reader (Molecular Devices)^8. Compound driven increases in intracellular calcium flux was measured as an increase in fluorescence (494Ex, 516Em)^9.
Positive allosteric modulator pEC50 values and antagonist pIC50 values for each compound were then determined. […] The points of modification and the alternate reagents, concentrations or equipment employed in these examples were: ^1200 μg/ml hygromycin B; ^2G418 not added; ^3CELLBANKER 1; ^410E6; ^5 40 μl; ^6 1 in 99; ^7 20 μl; ^8FDSS6000 (Hamamatsu Photonics); ^9(480Ex, 540Em); ^10Spotfire (TIBCO).

Chain of mAChR M1 (P11229 whole entry, looked up): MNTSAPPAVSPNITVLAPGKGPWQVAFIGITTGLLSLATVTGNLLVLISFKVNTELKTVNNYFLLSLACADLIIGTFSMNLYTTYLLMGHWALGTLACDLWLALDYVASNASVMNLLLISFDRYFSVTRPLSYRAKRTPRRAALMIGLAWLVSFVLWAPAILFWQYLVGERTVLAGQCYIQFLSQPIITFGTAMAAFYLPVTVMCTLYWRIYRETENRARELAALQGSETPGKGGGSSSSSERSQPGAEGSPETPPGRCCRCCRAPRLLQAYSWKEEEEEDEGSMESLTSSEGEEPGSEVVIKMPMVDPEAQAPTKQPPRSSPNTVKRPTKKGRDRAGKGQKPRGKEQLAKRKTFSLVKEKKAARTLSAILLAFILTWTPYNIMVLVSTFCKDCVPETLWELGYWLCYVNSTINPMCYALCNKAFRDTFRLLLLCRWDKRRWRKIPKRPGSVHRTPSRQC

Compound | pEC50 for positive allosteric modulation
Cc1cc(Cn2cc(C(=O)N[C@H]3CCCC[C@@H]3O)c3ncccc32)ccn1 [Example 76, N-((1S,2S)-2-Hydroxycyclohexyl)-1-((2-methylpyridin-4-yl)methyl)-1H-pyrrolo[3,2-b]pyridine-3-carboxamide] | 6.4
O=C(N[C@H]1CCCC[C@@H]1O)c1cn(Cc2ccncc2)c2cccnc12 [Example 77, N-((1S,2S)-2-Hydroxycyclohexyl)-1-(pyridin-4-ylmethyl)-1H-pyrrolo[3,2-b]pyridine-3-carboxamide] | 6.3
Cc1cc(Cn2cc(C(=O)N[C@H]3CCCC[C@@H]3O)c3nccc(Cl)c32)ccn1 [Example 78, 7-Chloro-N-((1S,2S)-2-hydroxycyclohexyl)-1-((2-methylpyridin-4-yl)methyl)-1H-pyrrolo[3,2-b]pyridine-3-carboxamide] | 7.8
O=C(N[C@H]1CCCC[C@@H]1O)c1cn(Cc2ccncc2)c2c(Cl)ccnc12 [Example 79, 7-Chloro-N-((1S,2S)-2-hydroxycyclohexyl)-1-(pyridin-4-ylmethyl)-1H-pyrrolo[3,2-b]pyridine-3-carboxamide] | 7.4
Cc1ccnc(Cn2cc(C(=O)N[C@H]3CCCC[C@@H]3O)c3nccc(Cl)c32)c1 [Example 80, 7-Chloro-N-((1S,2S)-2-hydroxycyclohexyl)-1-((4-methylpyridin-2-yl)methyl)-1H-pyrrolo[3,2-b]pyridine-3-carboxamide] | 7.1
Cc1ccnc2c(C(=O)N[C@H]3CCCC[C@@H]3O)cn(Cc3ccc(Cl)cn3)c12 [Example 81, 1-((5-Chloropyridin-2-yl)methyl)-N-((1S,2S)-2-hydroxycyclohexyl)-7-methyl-1H-pyrrolo[3,2-b]pyridine-3-carboxamide] | 7.2
O=C(N[C@H]1CCOC[C@@H]1O)c1cn(Cc2ccc(F)cc2)c2c(Cl)ccnc12 [Example 88, 7-Chloro-1-(4-fluorobenzyl)-N-((3R,4S)-3-hydroxytetrahydro-2H-pyran-4-yl)-1H-pyrrolo[3,2-b]pyridine-3-carboxamide] | 6.4
O=C(N[C@@H]1CCOC[C@H]1O)c1cn(Cc2ccc(F)cc2)c2c(Cl)ccnc12 [Example 89, 7-Chloro-1-(4-fluorobenzyl)-N-((3S,4R)-3-hydroxytetrahydro-2H-pyran-4-yl)-1H-pyrrolo[3,2-b]pyridine-3-carboxamide] | 6.6
O=C(N[C@H]1CCCC[C@@H]1O)c1cn(Cc2ccc(C(F)(F)F)cc2)c2cccnc12 [Example 90, N-((1S,2S)-2-hydroxycyclohexyl)-1-(4-(trifluoromethyl)benzyl)-1H-pyrrolo[3,2-b]pyridine-3-carboxamide] | 6.6
COc1cc(Cn2cc(C(=O)N[C@H]3CCCC[C@@H]3O)c3ncccc32)ccc1F [Example 91, 1-(4-fluoro-3-methoxybenzyl)-N-((1S,2S)-2-hydroxycyclohexyl)-1H-pyrrolo[3,2-b]pyridine-3-carboxamide] | 6.3
COc1ccc(Cn2cc(C(=O)N[C@H]3CCCC[C@@H]3O)c3ncccc32)c(F)c1 [Example 92, 1-(2-fluoro-4-methoxybenzyl)-N-((1S,2S)-2-hydroxycyclohexyl)-1H-pyrrolo[3,2-b]pyridine-3-carboxamide] | 6.4
COc1ccc(Cn2cc(C(=O)N[C@H]3CCCC[C@@H]3O)c3ncccc32)cc1 [Example 93, N-((1S,2S)-2-hydroxycyclohexyl)-1-(4-methoxybenzyl)-1H-pyrrolo[3,2-b]pyridine-3-carboxamide] | 6.9
O=C(N[C@H]1CCCC[C@@H]1O)c1cn(Cc2cccc(C(F)(F)F)c2)c2cccnc12 [Example 95, N-((1S,2S)-2-hydroxycyclohexyl)-1-(3-(trifluoromethyl)benzyl)-1H-pyrrolo[3,2-b]pyridine-3-carboxamide] | 6.1
Cc1cccc(Cn2cc(C(=O)N[C@H]3CCCC[C@@H]3O)c3ncccc32)c1 [Example 96, N-((1S,2S)-2-hydroxycyclohexyl)-1-(3-methylbenzyl)-1H-pyrrolo[3,2-b]pyridine-3-carboxamide] | 6.7
Cc1ccc(Cn2cc(C(=O)N[C@H]3CCCC[C@@H]3O)c3ncccc32)c(F)c1 [Example 97, 1-(2-fluoro-4-methylbenzyl)-N-((1S,2S)-2-hydroxycyclohexyl)-1H-pyrrolo[3,2-b]pyridine-3-carboxamide] | 6.9
Cc1ccnc2c(C(=O)N[C@H]3CCCC[C@@H]3O)cn(Cc3cc(F)ccc3F)c12 [Example 98, 1-(2,5-difluorobenzyl)-N-((1S,2S)-2-hydroxycyclohexyl)-7-methyl-1H-pyrrolo[3,2-b]pyridine-3-carboxamide] | 7.0
O=C(N[C@H]1CCCC[C@@H]1O)c1cn(Cc2ccc(OC(F)(F)F)cc2)c2c(Cl)ccnc12 [Example 99, 7-chloro-N-((1S,2S)-2-hydroxycyclohexyl)-1-(4-(trifluoromethoxy)benzyl)-1H-pyrrolo[3,2-b]pyridine-3-carboxamide] | 6.7
Cc1ccnc2c(C(=O)N[C@H]3CCCC[C@@H]3O)cn(Cc3ccc(OC(F)(F)F)cc3)c12 [Example 100, N-((1S,2S)-2-hydroxycyclohexyl)-7-methyl-1-(4-(trifluoromethoxy)benzyl)-1H-pyrrolo[3,2-b]pyridine-3-carboxamide] | 6.8
Cc1ccnc2c(C(=O)N[C@H]3CCCC[C@@H]3O)cn(Cc3cc(F)cc(F)c3)c12 [Example 101, 1-(3,5-difluorobenzyl)-N-((1S,2S)-2-hydroxycyclohexyl)-7-methyl-1H-pyrrolo[3,2-b]pyridine-3-carboxamide] | 7.0
COc1cccc(Cn2cc(C(=O)N[C@H]3CCCC[C@@H]3O)c3ncccc32)c1F [Example 102, 1-(2-fluoro-3-methoxybenzyl)-N-((1S,2S)-2-hydroxycyclohexyl)-1H-pyrrolo[3,2-b]pyridine-3-carboxamide] | 6.4
COc1ccnc2c(C(=O)N[C@H]3CCCC[C@@H]3O)cn(Cc3cccc(F)c3F)c12 [Example 104, 1-(2,3-difluorobenzyl)-N-((1S,2S)-2-hydroxycyclohexyl)-7-methoxy-1H-pyrrolo[3,2-b]pyridine-3-carboxamide] | 6.3
COc1ccc(Cn2cc(C(=O)N[C@H]3CCCC[C@@H]3O)c3nccc(OC)c32)cc1 [Example 105, N-((1S,2S)-2-hydroxycyclohexyl)-7-methoxy-1-(4-methoxybenzyl)-1H-pyrrolo[3,2-b]pyridine-3-carboxamide] | 6.7
